Data on 28 compounds can be found in patent publication US11446287B2, “Compounds and methods for EP300 or CBP modulation and indications therefor” (Opna Immuno-Oncology SA, priority 2019, dated 2022).

In this test the target is T1, Recombinant human EP300 containing the bromodomain (EP300-BD (1040-1161)) (Homo sapiens, UniProt Q09472).
T1 construct: Recombinant human EP300 bromodomain (EP300-BD (1040-1161)); made in house; host or cells: E. coli BL21-CodonPlus (DE3), modified pET vector
T1 sequence (Q09472 1040-1161): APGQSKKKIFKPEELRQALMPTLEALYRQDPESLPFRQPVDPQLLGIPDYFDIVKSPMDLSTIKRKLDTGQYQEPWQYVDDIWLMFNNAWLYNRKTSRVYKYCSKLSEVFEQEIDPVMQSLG
In words: EP300 Alphascreen binding assay. The method in brief:
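Displacement of a biotinylated acetyl-K56 histone H3 peptide from the N-His bromodomain construct (1040-1161) measured by AlphaScreen proximity, beads at 7.5 μg/ml final, read 60 min after addition. Protein, peptide and compound first incubated 1 h at room temperature, pH 7.5 HEPES buffer; IC50 by four-parameter logistic fit.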
In general terms: Bead proximity is the source of the signal in Alpha formats.

As usually defined, the IC50 is the midpoint of a concentration-inhibition curve. Turning to `Cc1noc(C)c1-c1cnc2c(c1)c(-c1ccc(C(=O)O)cc1OCC(F)(F)F)cn2C(C1CC1)C1CC1` [P-0214, 4-(1-(dicyclopropylmethyl)-5-(3,5-dimethylisoxazol-4-yl)-1H-pyrrolo[2,3-b]pyridin-3-yl)-3-(2,2,2-trifluoroethoxy)benzoic acid], the IC50 was in the range of 0.1 to 1000 nM.
The value for `Cc1noc(C)c1-c1cnc2c(c1)c(-c1ccc(C(=O)O)cc1OC(F)(F)F)cn2-c1ncccc1C#N` [P-0215, 4-(1-(3-cyanopyridin-2-yl)-5-(3,5-dimethylisoxazol-4-yl)-1H-pyrrolo[2,3-b]pyridin-3-yl)-3-(trifluoromethoxy)benzoic acid] was 0.1 to 1000 nM.
The value for `Cc1noc(C)c1-c1cnc2c(c1)c(-c1ccc(C(=O)O)cc1OC(F)(F)F)cn2-c1ncccc1C#CC1CC1` [P-0216, 4-(1-(3-(cyclopropylethynyl)pyridin-2-yl)-5-(3,5-dimethylisoxazol-4-yl)-1H-pyrrolo[2,3-b]pyridin-3-yl)-3-(trifluoromethoxy)benzoic acid] was 0.1 to 1000 nM.
With `CCOc1cc(C(=O)O)cc(OCC)c1-n1cc(-c2ccc(C#N)cc2F)c2ncc(-c3c(C)noc3C)cc21` [P-0217, 4-(3-(4-cyano-2-fluorophenyl)-6-(3,5-dimethylisoxazol-4-yl)-1H-pyrrolo[3,2-b]pyridin-1-yl)-3,5-diethoxybenzoic acid], the IC50 is 0.1 to 1000 nM.
With `CCOc1cc(C(=O)O)cc(OCC)c1-n1cc(-c2ccc(C(=O)NC3CC3)cc2)c2ncc(-c3c(C)noc3C)cc21` [P-0218, 4-(3-(4-(cyclopropylcarbamoyl)phenyl)-6-(3,5-dimethylisoxazol-4-yl)-1H-pyrrolo[3,2-b]pyridin-1-yl)-3,5-diethoxybenzoic acid] the figure was 0.1 to 1000 nM; with `COC(=O)c1cc(OC)c(-n2cc(-c3ccccc3)c3ncc(-c4c(C)noc4C)cc32)c(OC)c1` [P-0219, methyl 4-(6-(3,5-dimethylisoxazol-4-yl)-3-phenyl-1H-pyrrolo[3,2-b]pyridin-1-yl)-3,5-dimethoxybenzoate], 0.1 to 1000 nM; with `COc1cc(C(=O)O)cc(OC)c1-n1cc(-c2ccccc2)c2ncc(-c3c(C)noc3C)cc21` [P-0220, 4-(6-(3,5-dimethylisoxazol-4-yl)-3-phenyl-1H-pyrrolo[3,2-b]pyridin-1-yl)-3,5-dimethoxybenzoic acid], 0.1 to 1000 nM.
Regarding `COc1cccc(OC)c1-n1cc(-c2ccccc2)c2ncc(-c3c(C)noc3C)cc21` [P-0221, 4-(1-(2,6-dimethoxyphenyl)-3-phenyl-1H-pyrrolo[3,2-b]pyridin-6-yl)-3,5-dimethylisoxazole], the IC50 lay within 0.1 to 1000 nM.
As for `CCOc1cc(C(=O)O)cc(OCC)c1-n1cc(-c2ccnc(F)c2)c2ncc(-c3c(C)noc3C)cc21` [P-0222, 4-(6-(3,5-dimethylisoxazol-4-yl)-3-(2-fluoropyridin-4-yl)-1H-pyrrolo[3,2-b]pyridin-1-yl)-3,5-diethoxybenzoic acid], the IC50 lay within 0.1 to 1000 nM.
For `Cc1noc(C)c1-c1cnc2c(c1)c(-c1ccc(C(=O)O)cc1OC(F)(F)F)cn2-c1ccccc1F` [P-0223, 4-(5-(3,5-dimethylisoxazol-4-yl)-1-(2-fluorophenyl)-1H-pyrrolo[2,3-b]pyridin-3-yl)-3-(trifluoromethoxy)benzoic acid], the IC50 is 0.1 to 1000 nM.
With `CCOc1cccc(Cl)c1-n1cc(-c2ccccc2)c2ncc(-c3c(C)noc3C)cc21` [P-0224, 4-(1-(2-chloro-6-ethoxyphenyl)-3-phenyl-1H-pyrrolo[3,2-b]pyridin-6-yl)-3,5-dimethylisoxazole] the figure was 1000 to 8000 nM.
With `CCOc1ccc(C(=O)O)cc1-n1cc(-c2ccccc2)c2ncc(-c3c(C)noc3C)cc21` [P-0225, 3-(6-(3,5-dimethylisoxazol-4-yl)-3-phenyl-1H-pyrrolo[3,2-b]pyridin-1-yl)-4-ethoxybenzoic acid] the figure was 0.1 to 1000 nM.
As to `Cc1noc(C)c1-c1cnc2c(c1)c(-c1ccc(C(=O)O)cc1OC(F)(F)F)cn2C1CCOCC1` [P-0226, 4-(5-(3,5-dimethylisoxazol-4-yl)-1-(tetrahydro-2H-pyran-4-yl)-1H-pyrrolo[2,3-b]pyridin-3-yl)-3-(trifluoromethoxy)benzoic acid], the IC50 lay within 0.1 to 1000 nM.
With `Cc1noc(C)c1-c1cnc2c(c1)c(-c1ccc(C(=O)O)cc1OC(F)(F)F)cn2C1CCC(F)(F)CC1` [P-0227, 4-(1-(4,4-difluorocyclohexyl)-5-(3,5-dimethylisoxazol-4-yl)-1H-pyrrolo[2,3-b]pyridin-3-yl)-3-(trifluoromethoxy)benzoic acid] the figure was 0.1 to 1000 nM.
Consider `Cc1noc(C)c1-c1cnc2c(c1)c(-c1ccc(C(=O)O)cc1OC(F)(F)F)c(C)n2-c1ccccn1` [P-0228, 4-(5-(3,5-dimethylisoxazol-4-yl)-2-methyl-1-(pyridin-2-yl)-1H-pyrrolo[2,3-b]pyridin-3-yl)-3-(trifluoromethoxy)benzoic acid], for which the IC50 lay within 0.1 to 1000 nM.
With `Cc1noc(C)c1-c1cnc2c(-c3ccc(F)cc3F)cn(-c3ccc(C(=O)O)cc3OC(F)(F)F)c2c1` [P-0229, 4-(3-(2,4-difluorophenyl)-6-(3,5-dimethylisoxazol-4-yl)-1H-pyrrolo[3,2-b]pyridin-1-yl)-3-(trifluoromethoxy)benzoic acid] the figure was 0.1 to 1000 nM; with `Cc1noc(C)c1-c1cnc2c(c1)c(-c1c(F)cc(C(=O)O)cc1OC(F)(F)F)cn2C(C1CC1)C1CC1` [P-0230, 4-(1-(dicyclopropylmethyl)-5-(3,5-dimethylisoxazol-4-yl)-1H-pyrrolo[2,3-b]pyridin-3-yl)-3-fluoro-5-(trifluoromethoxy)benzoic acid], 0.1 to 1000 nM; with `Cc1ccccc1-n1cc(-c2ccc(C(=O)O)cc2OC(F)(F)F)c2cc(-c3c(C)noc3C)cnc21` [P-0231, 4-(5-(3,5-dimethylisoxazol-4-yl)-1-(o-tolyl)-1H-pyrrolo[2,3-b]pyridin-3-yl)-3-(trifluoromethoxy)benzoic acid], 0.1 to 1000 nM.
The value for `Cc1noc(C)c1-c1cnc2c(c1)c(-c1ccc(C(=O)O)cc1OC(F)(F)F)cn2-c1ccc(F)cc1F` [P-0232, 4-(1-(2,4-difluorophenyl)-5-(3,5-dimethylisoxazol-4-yl)-1H-pyrrolo[2,3-b]pyridin-3-yl)-3-(trifluoromethoxy)benzoic acid] was 0.1 to 1000 nM.
The value for `Cc1noc(C)c1-c1cnc2c(c1)c(-c1ccc(C(=O)O)cc1OC(F)(F)F)cn2-c1cc(F)ccc1F` [P-0233, 4-(1-(2,5-difluorophenyl)-5-(3,5-dimethylisoxazol-4-yl)-1H-pyrrolo[2,3-b]pyridin-3-yl)-3-(trifluoromethoxy)benzoic acid] was 0.1 to 1000 nM.
For `Cc1noc(C)c1-c1cnc2c(-c3ccc(C(=O)O)cc3F)c(C(F)(F)F)n([C@@H](C)c3ccccn3)c2c1` [P-0234, (S)-4-(6-(3,5-dimethylisoxazol-4-yl)-1-(1-(pyridin-2-yl)ethyl)-2-(trifluoromethyl)-1H-pyrrolo[3,2-b]pyridin-3-yl)-3-fluorobenzoic acid], the IC50 is 0.1 to 1000 nM.
The value for `Cc1cc(C(=O)O)ccc1-c1c(C(F)(F)F)n([C@@H](C)c2ccccn2)c2cc(-c3c(C)noc3C)cnc12` [P-0235, (S)-4-(6-(3,5-dimethylisoxazol-4-yl)-1-(1-(pyridin-2-yl)ethyl)-2-(trifluoromethyl)-1H-pyrrolo[3,2-b]pyridin-3-yl)-3-methylbenzoic acid] was 0.1 to 1000 nM; that for `COc1cc(C(=O)O)ccc1-c1c(C(F)(F)F)n([C@@H](C)c2ccccn2)c2cc(-c3c(C)noc3C)cnc12` [P-0236, (S)-4-(6-(3,5-dimethylisoxazol-4-yl)-1-(1-(pyridin-2-yl)ethyl)-2-(trifluoromethyl)-1H-pyrrolo[3,2-b]pyridin-3-yl)-3-methoxybenzoic acid] was 0.1 to 1000 nM.
The value for `Cc1noc(C)c1-c1cnc2c(-c3cn(C)nc3C3CC3)c(C(F)(F)F)n([C@@H](C)c3ccccn3)c2c1` [P-0237, (S)-4-(3-(3-cyclopropyl-1-methyl-1H-pyrazol-4-yl)-1-(1-(pyridin-2-yl)ethyl)-2-(trifluoromethyl)-1H-pyrrolo[3,2-b]pyridin-6-yl)-3,5-dimethylisoxazole] was 0.1 to 1000 nM; that for `Cc1noc(C)c1-c1cnc2c(-c3cc(C(=O)O)ccc3F)c(C(F)(F)F)n([C@@H](C)c3ccccn3)c2c1` [P-0238, (S)-3-(6-(3,5-dimethylisoxazol-4-yl)-1-(1-(pyridin-2-yl)ethyl)-2-(trifluoromethyl)-1H-pyrrolo[3,2-b]pyridin-3-yl)-4-fluorobenzoic acid] was 0.1 to 1000 nM.
With `COc1ccc(C(=O)O)cc1-c1c(C(F)(F)F)n([C@@H](C)c2ccccn2)c2cc(-c3c(C)noc3C)cnc12` [P-0239, (S)-3-(6-(3,5-dimethylisoxazol-4-yl)-1-(1-(pyridin-2-yl)ethyl)-2-(trifluoromethyl)-1H-pyrrolo[3,2-b]pyridin-3-yl)-4-methoxybenzoic acid] the figure was 0.1 to 1000 nM; with `Cc1noc(C)c1-c1cnc2c(-c3cc(F)cc(C(=O)O)c3)c(C(F)(F)F)n([C@@H](C)c3ccccn3)c2c1` [P-0240, (S)-3-(6-(3,5-dimethylisoxazol-4-yl)-1-(1-(pyridin-2-yl)ethyl)-2-(trifluoromethyl)-1H-pyrrolo[3,2-b]pyridin-3-yl)-5-fluorobenzoic acid], 0.1 to 1000 nM; with `Cc1noc(C)c1-c1cnc2c(-c3cc(Cl)cc(C(=O)O)c3)c(C(F)(F)F)n([C@@H](C)c3ccccn3)c2c1` [P-0241, (S)-3-chloro-5-(6-(3,5-dimethylisoxazol-4-yl)-1-(1-(pyridin-2-yl)ethyl)-2-(trifluoromethyl)-1H-pyrrolo[3,2-b]pyridin-3-yl)benzoic acid], 0.1 to 1000 nM.
